Entries after “also recorded” stand apart in the source; their conditions may differ. Like-named read-outs stand apart in the source and are kept apart here.
Key:
[1] = after treatment with Ret-NH2; diminished 7 days after treatment; cited from earlier work
retinoid cycle = retinoid cycle inhibition before light exposure, LC/MS metabolic profile of retina; assay type: in vivo; settings: pretreatment of Abca4^−/−Rdh8^−/− mice several hours before light exposure
Protocol: At day 3 after light exposure, mouse retinas were dissected and homogenized in 0.3 mL of ice-cold acetonitrile. Samples were vortexed for 30 s followed by centrifugation for 15 min at 16,000×g. Clear supernatants were collected and used directly for LC/MS analyses. Each retinal extract was injected onto a reverse-phase C18 Phenomenex HPLC column (250×4.60 mm; 5 μm) preequilibrated with 5% acetonitrile in water. […] Total ion chromatograms were analyzed with XCMS software available online at the Scripps Center for Metabolomics.
Fluorophores responsible for AF in the retina could be an indicator of global changes in the metabolic profile of this tissue. To evaluate and quantify these changes as well as determine whether they depend on a functional retinoid cycle, we used both genetically altered (Lrat^−/−) and pharmacologically treated (retinylamine) mice with metabolic profiles that were compared with light-exposed and dark-adapted Abca4^−/−Rdh8^−/− mice by using a LC/MS approach. […] To investigate the origin of these light-induced alterations, we first analyzed the metabolic profile of retinal samples isolated from light-exposed lecithin:retinol acyltransferase (LRAT)-deficient mice that cannot produce visual chromophore. […]

[2] = test system: Abca4^−/−Rdh8^−/− (Dko) retinal cultures; experiment: ex vivo Dko retinal cultures incubated with atRAL (morphology, LDH); assay type: cell-based; settings: 6 h at 37° C; for effect on atRAL-induced cell death rate (LDH assay): Ret-NH2 30 μM or Apo 300 μM together with 30 μM atRAL
Protocol: FIGS. 11(A-B) illustrate images showing retinal degeneration is induced by atRAL in ex vivo Dko retinal cultures. Retinas were removed from the eyecups of 4-wk-old Abca4^−/−Rdh8^−/− (Dko) mice and cultured for 16 h at 37° C. Retinas were then incubated further with/without 30 μM of atRAL in the presence/absence of experimental drugs for 6 h at 37° C. Vehicle (DMSO), retinylamine (Ret-NH2) at 30 μM, or apocynin (Apo) at 300 μM was applied together with atRAL. (A) Retinal morphology was examined after incubation with atRAL. […] Bars indicate SD (n=3). *P<0.05.
(§1) Eyes were enucleated, washed with a penicillin-streptomycin solution (Sigma), and rinsed with Hank's balanced salt solution (HyClone). Prepared mouse eyecups were flattened by creating retinal flaps. Flattened retinas were transferred onto filter paper and the retina was gently peeled off from the RPE/choroid. All these procedures were performed under a surgical microscope. Each retina on filter paper was placed into a well of a 12-well plate filled with 0.5 mL of DMEM (HyClone) with 10% FBS and incubated for 16 h at 37° C. Retinas then were washed twice with 0.5 mL of fresh DMEM containing 10% FBS and finally incubated again with/without 30 μM of atRAL for 6 h at 37° C. A lactate dehydrogenase (LDH) assay was performed to determine cellular death rates with a LDH activity assay kit (BioVision). The percentage of cytotoxicity was calculated as [(a retina with atRAL—a retina without atRAL)/(lysis control—a retina without atRAL)]×100.

[3] = test system: RPE of wild type (WT) mice; experiment: two-photon imaging of retinosomes in WT mouse RPE; assay type: in vivo; settings: WT mice pre-treated with Ret-NH2, white light 5,000 lux before imaging, laser power reduced by 17%
Protocol: To enhance the visibility of retinosomes, WT mice without any drug treatment or treated with Ret-NH2 were exposed to 5,000 lux of white light for 5-30 min, 1 to 3 h before imaging.
To assess the capabilities of our system to characterize the RPE and retina we imaged ex vivo eyes of mice with different genetic backgrounds. The brightest RPE images were obtained in Rpe65^−/− mice in response to 730 nm excitation (FIG. 17a). The brightly fluorescent granules correspond to enlarged retinosomes, which are a characteristic feature of the RPE only in Rpe65^−/− mice due to blockade of 11cisretinol synthesis. […] We also imaged and counted the neuronal nuclei in the ganglion cell layer at 0.6 mm eccentricity and found 2,500 nuclei per mm2 (FIG. 17d), which is smaller than previously reported about 7,000 per mm2 of combined ganglion and displaced amacrine cells in stained retina. This difference arises from: a) nuclei are free of fluorophores, and are only visible as dark structures against brighter cell bodies, which can lead to obstruction of the nuclei by axon bundles; b) not all the cell nuclei were at the same imaging depth; and c) the estimates of the area could be off by 40% because they were determined by comparing measurements of optic disk in en face TPM images to histological sections. […]

[4] = test system: retinal explant tissue cultures; assay type: cell-based; settings: 6 h at 37° C, WT retinas; for protection of retinal morphology against atRAL-induced damage: Ret-NH2 30 μM or apocynin 300 μM together with 30 μM atRAL; for prevention of atRAL-induced photoreceptor apoptosis (TUNEL staining): retinylamine 30 μM or apocynin 300 μM together with 30 μM atRAL
Protocol: FIGS. 6(A-B) illustrate images and a plot showing retinal degeneration is induced by atRAL in ex vivo retinal cultures. Retinas were removed from the eyecups of 4-wk-old C57BL/6J mice and cultured for 16 h at 37° C. Then retinas were incubated further with/without 30 μM of atRAL in the presence/absence of experimental drugs for 6 h at 37° C. Vehicle (DMSO), retinylamine (Ret-NH2) at 30 μM, or apocynin (Apo) at 300 μM was applied, together with atRAL. (A) Retinal morphology was examined after incubation with atRAL and with and without drugs. […] (B) TUNEL staining was performed with the ApoTag Peroxidase in Situ Apoptosis Detection Kit. Counter nuclear staining was accomplished with methyl green. […] (D) Retinas were removed from eyecups of 4-wk-old C57BL/6J mice and cultured with or without 30 μM of atRAL for 24 h at 37° C. After incubation, retinas were washed twice with PBS and then examined by TPM. Spectra from photoreceptor outer segments are shown (Left) along with representative magnified images (Right). Spectra from retinas cultured with atRAL featured a broad maximum absorption at 600 nm.
as §1
The primary cause of acute retinal degeneration after bright light exposure in Abca4^−/−Rdh8^−/− mice is the delayed clearance of atRAL from photoreceptors. […] Thus, to examine whether retinal tissue lacking RPE cells can display degenerative changes similar to those observed in in vivo, we performed ex vivo culture experiments with retinal explants coincubated with atRAL. Neural retinas were dissected from eyes of 4-wk-old WT mice, and incubated with 30 μM of atRAL in the presence of control vehicle, 30 μM of retinylamine or 300 μM of apocynin for 6 h at 37° C. […] Cell death rates were calculated by measuring lactate dehydrogenase released into tissue culture supernatants from dying cells.

Abca4^−/−Rdh8^−/− mice = experiment: light-induced retinal degeneration in Abca4^−/−Rdh8^−/− mice, TPM and histology at day 7; settings: for light-induced retinal degeneration (retinal histology): Ret-NH2 1 mg per mouse oral gavage 16 h before, or Apo 1 mg/mouse i.p. 30 min before 10,000 lx light for 60 min, day 7
[5] = test system: RPE of Abca4^−/−Rdh8^−/− (DKO) mice; experiment: two-photon trans-pupil imaging of fluorescent granules in RPE after bright light; settings: 2 mg Ret-NH2 gavage 13 to 16 h prior to 10,000 lux for 60 min; ex vivo imaging 7 and 14 days after light
Source text: All animal procedures and experiments were approved by the Institutional Animal Care and Use Committee at Case Western Reserve University and conformed to recommendations of both the American Veterinary Medical Association Panel on Euthanasia and the Association for Research in Vision and Ophthalmology. B6(Cg)-Tyrc-2J/J mice were purchased from The Jackson Laboratory. Abca4^−/−Rdh8^−/− (DKO) and Rpe65^−/− mice were generated and genotyped as previously described. Human opsinGFP fusion, knockin hrhoG/hrhoG mice, expressing human rhodopsinGFP in photoreceptor outer segments were kindly provided by Dr. John H. Wilson (Baylor College of Medicine). […]
After treatment with Ret-NH2 the content of fluorescent retinyl esters increases in the eye as reported previously. […] For quantification of the impact of drug treatment, the same detector settings were used for mice that were treated and not treated with Ret-NH2. […]
The tunable, 690-1050 nm, Chameleon VisionS generated 75 fs laser pulses at 80 MHz pulse repetition frequency. […] In twophoton imaging, the excitation matters most because the emission fluorescence is generated only in the focal spot; therefore, it is critical to achieve a tightly focused excitation beam. […]

SMILES | content of fluorescent retinyl esters in the eye [1] | regeneration of visual chromophore in the eye (retinoid cycle) | effect on atRAL-induced cell death rate (LDH assay) ([2]; Dko retinas) | visibility of retinosomes in RPE [3] | protection of retinal morphology against atRAL-induced damage [4] | prevention of atRAL-induced photoreceptor apoptosis (TUNEL staining) ([4]; listed as Ret-NH2) | RPE autofluorescence appearance by TPM (Abca4^−/−Rdh8^−/− mice; 730 nm and 850 nm excitation, day 7 after light, Ret-NH2 1 mg oral gavage, Apo 1 mg i.p.) | light-induced retinal degeneration (retinal histology) (Abca4^−/−Rdh8^−/− mice) | accumulation of fluorescent granules in the RPE [5] | prevention of atRAL-induced photoreceptor apoptosis (TUNEL staining) ([4]; listed as APO) | retinal morphology (ONL) after incubation with atRAL ([2]; 30 μM atRAL with vehicle, Dko retinas) | retinal cell death (LDH assay) caused by atRAL ([2]; 30 μM atRAL, Dko retinal culture supernatants)
CC1=C(/C=C/C(C)=C/C=C/C(C)=C/CN)C(C)(C)CCC1 [retinylamine] | increases | markedly reduced | reduced | more clearly visible | protected the ONL and INL | protected the ONL and INL | increased fluorescence of retinosomes | can be prevented; also recorded: conferred protection | no deposits; also recorded: protects RPE |  |  | 
COc1cc(C(C)=O)ccc1O [apocynin] |  |  | reduced |  | protected the ONL and INL |  |  | can be prevented; also recorded: conferred protection |  | protected the ONL and INL |  | 
CC1=C(/C=C/C(C)=C/C=C/C(C)=C/C=O)C(C)(C)CCC1 [atRAL, all-trans-retinaldehyde] |  |  |  |  |  |  |  |  |  |  | markedly disrupted | caused retinal cell death

— US20160345827A1, “TWO-PHOTON MICROSCOPY IMAGING RETINA CELL DAMAGE” (POLGENIX, INC., priority 2014, published 2016)
